One assay has as its system pERK level in H358 cells. Kind of assay: pERK and ERK protein content assay in H358 cells (ELISA). The settings on record: Homo sapiens, NCI-H358, compound 1 μM, 24 h, pERK/ERK ratio compared with DMSO group, read-out: Inhibition rate (%) of pERK level. Type of assay: cell-based. The protocol: H358 cells were seeded in a 24-well plate. After one day of growth, a test compound (at a concentration of 1 μM) was added. After 24 h of action of the compound, the cells were lysed, and the cell lysate was transferred to a 96-well ELISA plate. The levels of pERK and ERK in the lysate were measured using an ELISA kit (abcam 176660). The ratio of pERK to ERK was calculated and compared with that of the DMSO group, and the percentage of inhibition of pERK activity by the compound was calculated.
A general note: An ELISA detects its analyte on a solid surface through an enzyme-linked reagent.

The subject of a further assay is H358 cells. As to the kind of experiment: Antiproliferative activity against H358 cells (Cell Titer Glow, ultra-low attachment plate). Conditions: Homo sapiens, NCI-H358, 72 h, 96-well ultra-low attachment plate, three days after addition of compound, Cell Titer Glow. It counts as cell-based. As for the experimental part: 2500 H358 cells were seeded in a 96-well ultra-low attachment plate (corning, 7007). After one day of growth, a serially diluted compound (a maximum concentration of 5 μM, 5-fold dilution, a total of five doses) was added. Three days after the addition of the compound, Cell Titer Glow (Promega, G9681) was added to evaluate pellet growth, and the IC50 value was calculated.
Background: ATP-based viability assays read luminescence as a measure of living cells.

Usually inhibition stands for the drop in the measured response relative to a control, in per cent. By IC50 is commonly meant the concentration at which inhibition is half-maximal. Low values mean greater potency in that assay, high ones weaker potency in that assay. In the case of `C=C(F)C(=O)N1CC2(CCN(c3nc(OC4CCN(CCOC)CC4)nc4c(OCC(F)F)c(-c5c(C)ccc6[nH]ncc56)c(C5CC5)cc34)CC2)C1` [Compound 3], the inhibition at 1 µM in the assay on pERK level in H358 cells is > 90%. Also, the IC50 in the assay with H358 cells was < 300 nM.
For `C=Cc1cc2c(N3CCC4(CC3)CN(C(=O)C(=C)F)C4)nc(OC3CCN(CCOC)CC3)nc2c(OCC)c1-c1c(C)ccc2[nH]ncc12` [Compound 4], the inhibition at 1 µM with pERK level in H358 cells was > 90%. Also, in the assay with H358 cells, the IC50 is < 300 nM.
Take `C=CC(=O)N1CC2(CCN(c3nc(OC4CCN(CCOC)CC4)nc4c(N(C)CC(F)(F)F)c(-c5c(C)ccc6[nH]ncc56)c(C5CC5)cc34)CC2)C1` [Compound 7]: in the assay with pERK level in H358 cells, the inhibition at 1 µM was in the range of 50 to 90%. The same compound displayed an IC50 in the assay on H358 cells of 300 to 1000 nM.
On to `C=CC(=O)N1CC2(CCN(c3nc(OC4CCN(CCOC)CC4)nc4c(N5CCC5)c(-c5c(C)ccc6[nH]ncc56)c(C5CC5)cc34)CC2)C1` [Compound 8], for which the inhibition at 1 µM in the assay with pERK level in H358 cells lay in the range of 50 to 90%. Moreover, the IC50 in the assay with H358 cells was in the range of 300 to 1000 nM.
As to `C=CC(=O)N1CC2(CCN(c3nc(OC4CCN(CCOC)CC4)nc4c(N5CC(F)(F)C5)c(-c5c(C)ccc6[nH]ncc56)c(C5CC5)cc34)CC2)C1` [Compound 9], the inhibition at 1 µM with pERK level in H358 cells is > 90%. For the same compound, in the assay on H358 cells, the IC50 was < 300 nM.
As to `C=CC(=O)N1CC2(CCN(c3nc(OC4CCN(CCOC)CC4)nc4c(OCC(F)(F)F)c(-c5c(C)ccc6[nH]ncc56)ccc34)CC2)C1` [Compound 10], the inhibition at 1 µM in the assay with pERK level in H358 cells was in the range of 50 to 90%. The IC50 with H358 cells lay within 300 to 1000 nM.
With `C=CC(=O)N1CC2(CCN(c3nc(OC4CCN(CCOC)CC4)nc4c(OCC(F)(F)F)c(-c5c(C)ccc6[nH]ncc56)c(F)cc34)CC2)C1` [Compound 11], the inhibition at 1 µM with pERK level in H358 cells was > 90%. The IC50 in the assay with H358 cells was < 300 nM.
`C=CC(=O)N1CC2(CCN(c3nc(OC4CCN(CCOC)CC4)nc4c(OCC(F)(F)F)c(-c5c(C)ccc6[nH]ncc56)c(Cl)cc34)CC2)C1` [Compound 12]: in the assay with pERK level in H358 cells, the inhibition at 1 µM is > 90%. Moreover, the IC50 in the assay on H358 cells was < 300 nM.
In the case of `C=CC(=O)N1CC2(CCN(c3nc(OC4CCN(CCOC)CC4)nc4c(OCC(F)(F)F)c(-c5c(C)ccc6[nH]ncc56)c(C)cc34)CC2)C1` [Compound 13], in the assay on pERK level in H358 cells, the inhibition at 1 µM was > 90%. In the assay on H358 cells, this compound yielded an IC50 of 300 to 1000 nM.
For `C=CC(=O)N1CC2(CCN(c3nc(OC4CCN(CCOC)CC4)nc4c(OCC(F)(F)F)c(-c5c(C)ccc6[nH]ncc56)c(CC)cc34)CC2)C1` [Compound 14], the inhibition at 1 µM in the assay on pERK level in H358 cells was > 90%. Also, the IC50 with H358 cells fell in the range of 300 to 1000 nM.
Turning to `C=CC(=O)N1CC2(CCN(c3nc(OC4CCN(CCOC)CC4)nc4c(OCC(F)(F)F)c(-c5c(C)ccc6[nH]ncc56)c(C(C)C)cc34)CC2)C1` [Compound 15], the inhibition at 1 µM in the assay on pERK level in H358 cells is > 90%. Besides, in the assay on H358 cells, the IC50 was < 300 nM.
For `C#Cc1cc2c(N3CCC4(CC3)CN(C(=O)C=C)C4)nc(OC3CCN(CCOC)CC3)nc2c(OCC(F)(F)F)c1-c1c(C)ccc2[nH]ncc12` [Compound 16], in that order: 50 to 90% and 300 to 1000 nM.
Turning to `C=C(C)C(=O)N1CC2(CCN(c3nc(OC4CCN(CCOC)CC4)nc4c(OCC(F)(F)F)c(-c5c(C)ccc6[nH]ncc56)c(C5CC5)cc34)CC2)C1` [Compound 17], the inhibition at 1 µM in the assay on pERK level in H358 cells is > 90%. Further, the IC50 in the assay on H358 cells was < 300 nM.
In the same order, the values of `C=C(C#N)C(=O)N1CC2(CCN(c3nc(OC4CCN(CCOC)CC4)nc4c(OCC(F)(F)F)c(-c5c(C)ccc6[nH]ncc56)c(C5CC5)cc34)CC2)C1` [Compound 18] are 50 to 90% and 300 to 1000 nM.
As to `C=C(C(=O)N1CC2(CCN(c3nc(OC4CCN(CCOC)CC4)nc4c(OCC(F)(F)F)c(-c5c(C)ccc6[nH]ncc56)c(C5CC5)cc34)CC2)C1)C(F)(F)F` [Compound 19], the inhibition at 1 µM in the assay with pERK level in H358 cells was 50 to 90%. The compound also showed a concentration for half-maximal inhibition (IC50) in the assay on H358 cells of 300 to 1000 nM.
With `C=C(C(=O)N1CC2(CCN(c3nc(OC4CCN(CCOC)CC4)nc4c(OCC(F)(F)F)c(-c5c(C)ccc6[nH]ncc56)c(C5CC5)cc34)CC2)C1)c1cnccn1` [Compound 20], in the assay on pERK level in H358 cells, the inhibition at 1 µM was > 90%. The IC50 in the assay on H358 cells was < 300 nM.

Values taken from patent US12479843B2, “Spiro ring-containing quinazoline compounds” (WIGEN BIOMEDICINE TECHNOLOGY (SHANGHAI) CO., LTD., priority 2019, dated 2025).
